Source: patent US5693642A, “Piperazine derivatives as 5-HT1A ligands” (John Wyeth & Brother Ltd., priority 1993, dated 1997)

molecular target: T1, 5-HT1A receptor (Rattus norvegicus, UniProt P19327); test: 5-HT1A receptor binding activity in rat hippocampal membrane homogenate
T1 construct: rat hippocampal membrane homogenate; from tissue; host or cells: rat hippocampal membrane homogenate
T1 sequence (P19327 1-422): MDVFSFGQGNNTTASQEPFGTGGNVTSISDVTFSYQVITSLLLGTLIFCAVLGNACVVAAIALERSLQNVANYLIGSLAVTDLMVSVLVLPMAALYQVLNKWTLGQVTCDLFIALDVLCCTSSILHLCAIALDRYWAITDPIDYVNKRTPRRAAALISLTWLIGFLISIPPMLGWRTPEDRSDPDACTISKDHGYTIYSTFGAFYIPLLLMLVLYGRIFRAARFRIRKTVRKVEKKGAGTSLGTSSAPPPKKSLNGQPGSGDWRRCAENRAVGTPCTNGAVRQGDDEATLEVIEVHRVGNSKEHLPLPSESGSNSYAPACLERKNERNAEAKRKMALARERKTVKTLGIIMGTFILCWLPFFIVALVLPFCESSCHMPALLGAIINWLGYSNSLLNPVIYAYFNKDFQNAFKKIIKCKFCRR
Protocol: The compounds of the invention were tested for 5-HT1A receptor binding activity in rat hippocampal membrane homogenate by the method of B. S. Alexander and M. D. Wood, J Pharm Pharmacol, 1988, 40, 888-891.

| SMILES | IC50 |
| --- | --- |
| COc1ccccc1N1CCN(CCC(CC2CCCCC2)c2ccccn2)CC1 (centres unmarked) [Example 4] | 1.6 nM |
| COc1ccccc1N1CCN(C[C@H](c2ccccn2)[C@H](O)C2CCCCC2)CC1 (relative stereo) [Example 1a, R*, R*-1-(2Methoxyphenyl)-4-[(2-propan-(2-pyridinyl)-3-cyclohexyl)-3-ol]piperazine] | 4 nM |
| COc1ccccc1N1CCN(CCC(C(=O)C2CCCCC2)c2ccccn2)CC1 (centres unmarked) [Example 3] | 2.6 nM |
| COc1ccccc1N1CCN(CCC(c2ccccn2)[S+]([O-])C2CCCCC2)CC1 (single isomer, unassigned) [Example 7, 1-(2-Methoxyphenyl)-4-[3-(cyclohexylsulphoxy)-3-(2-pyridinyl)propyl]piperazine] | 15 nM |
| COc1ccccc1N1CCN(CCC(SC2CCCCC2)c2ccccn2)CC1 (centres unmarked) [Example 6, 1-(2-Methoxyphenyl)-4-[3-(cyclohexylthio)-3-(2-pyridinyl)propyl]piperazine] | 4.25 nM |
| COc1ccccc1N1CCN(C[C@H](c2ccccn2)[C@@H](O)C2CCCCC2)CC1 (relative stereo) [Example 1b, R*, S*-1-(2-Methoxyphenyl)-4-[(2-propan-(2-pyridinyl)-3-cyclohexyl)-3-ol]piperazine] | 4.3 nM |

More lines, now with the values ahead:

| IC50 | SMILES |
| --- | --- |
| 1.8 nM | COc1ccccc1N1CCN(CC[C@H](c2ccccn2)[C@@H](O)C2CCCCC2)CC1 (relative stereo) [Example 2b, R*,S*-1-(2-Methoxyphenyl)-4-[3-butan-(2-pyridinyl)-4-cyclohexyl)-4-ol]piperazine] |
| 2 nM | COc1ccccc1N1CCN(CC[C@H](c2ccccn2)[C@H](O)C2CCCCC2)CC1 (relative stereo) [Example 2a, R*,R*-1-(2-Methoxyphenyl)-4-[3-butan-(2-pyridinyl)-4-cyclohexyl)-4-ol]piperazine] |
